ChEMBL document CHEMBL3390846, “Synthesis and biological activity of new pyridone diaryl ether non-nucleoside inhibitors of HIV-1 reverse transcriptase” (Medchemcomm, 2010)

Experiments:
[1] = system: Human immunodeficiency virus 1; assay: Antiviral activity against wild type HIV-1 LAI infected in human MT4 cells assessed as protection against virus-induced cell death after 5 days by MTT assay; assay type: functional, organism-based; conditions: Human immunodeficiency virus 1, LAI, MT4, 120 h
[2] = target: Human immunodeficiency virus type 1 reverse transcriptase (Human immunodeficiency virus 1, UniProt Q72547); assay: Inhibition of polymerase activity of wild type HIV-1 LAI reverse transcriptase
[3] = target: Human immunodeficiency virus type 1 reverse transcriptase (Human immunodeficiency virus 1, UniProt Q72547, K103N); assay: Inhibition of polymerase activity of NNRTI-resistant HIV-1 LAI reverse transcriptase K103N mutant
[4] = target: Human immunodeficiency virus type 1 reverse transcriptase (Human immunodeficiency virus 1, UniProt Q72547, Y181C); assay: Inhibition of polymerase activity of NNRTI-resistant HIV-1 LAI reverse transcriptase Y181C mutant
[5] = system: Human immunodeficiency virus 1; assay: Antiviral activity against wild type HIV-1 LAI infected in human MT4 cells assessed as inhibition of viral replication after 5 days by MTT assay in presence of 40% human serum; assay type: functional, organism-based; conditions: Human immunodeficiency virus 1, LAI, MT4, 120 h
[6] = system: Human immunodeficiency virus 1; assay: Antiviral activity against NNRTI-resistant HIV-1 LAI harboring reverse transcriptase Y181C mutant infected in human MT4 cells assessed as inhibition of viral replication after 5 days by MTT assay; assay type: functional, organism-based; conditions: Human immunodeficiency virus 1, LAI, MT4, 120 h
[7] = system: Human immunodeficiency virus 1; assay: Antiviral activity against wild type HIV-1 LAI infected in human MT4 cells assessed as inhibition of viral replication after 5 days by MTT assay; assay type: functional, organism-based; conditions: Human immunodeficiency virus 1, LAI, MT4, 120 h
[8] = system: Human immunodeficiency virus 1; assay: Antiviral activity against NNRTI-resistant HIV-1 LAI harboring reverse transcriptase K103N mutant infected in human MT4 cells assessed as inhibition of viral replication after 5 days by MTT assay; assay type: functional, organism-based; conditions: Human immunodeficiency virus 1, LAI, MT4, 120 h
[9] = system: Human immunodeficiency virus 1; assay: Potency index, ratio of efavirenz IC50 to compound IC50 for wild type HIV-1 LAI in presence of 40% human serum; assay type: functional

Row | Compound | IC50 [1] [nM] | IC50 [2] [nM] | IC50 [3] [nM] | IC50 [4] [nM] | IC50 [5] [nM] | IC50 [6] [nM] | IC50 [7] [nM] | IC50 [8] [nM] | Ratio IC50 [9]
1 | CN(C)c1c(Oc2cc(Cl)cc(C#N)c2)cc(CC(=O)N2CCc3ccccc3C2)[nH]c1=O | 35 | 220 |  |  |  |  |  |  | 
2 | N#Cc1cc(Cl)cc(Oc2c(F)c(CCc3cccc(Cl)c3)[nH]c(=O)c2Br)c1 |  | 17 | 8 | 8 |  |  |  |  | 
3 | N#Cc1cc(Cl)cc(Oc2c(F)c(CCc3ccncc3)[nH]c(=O)c2Br)c1 |  | 2 | 1 | 1 | 23 | 11 | 5 |  | 
4 | N#Cc1cc(Cl)cc(Oc2c(Cc3ccccc3)c[nH]c(=O)c2Br)c1 |  | 34 | 71 | 41 |  |  |  |  | 
5 | N#Cc1cc(Cl)cc(Oc2c(CCOc3cccnc3)c[nH]c(=O)c2Br)c1 |  | 11 | 16 | 8 |  |  |  |  | 
6 | N#Cc1cc(Cl)cc(Oc2c(CCOc3ccncc3)c[nH]c(=O)c2Br)c1 |  | 10 | 14 | 8 |  |  |  |  | 
7 | N#Cc1cc(Cl)cc(Oc2c(COCc3ccncc3)c[nH]c(=O)c2Br)c1 |  | 21 | 13 | 11 | 10 | 19 | 7 | 13 | 
8 | Cc1[nH]c(=O)c(Br)c(Oc2cc(Cl)cc(C#N)c2)c1Cc1ccccc1 |  | 10 | 7 | 8 | 32 | 29 | 6 | 16 | 
9 | Cc1[nH]c(=O)c(Cl)c(Oc2cc(Cl)cc(C#N)c2)c1CCOc1ccccc1 |  | 6 | 5 | 6 | 13 | 11 | 4 | 24 | 
10 | Cc1[nH]c(=O)c(Cl)c(Oc2cc(Cl)cc(C#N)c2)c1CCCc1ccncc1 |  | 4 | 2 | 3 | 5 | 6 | 2 |  | 3
11 | N#Cc1cc(Cl)cc(Oc2c(F)c(CC(=O)N3CCc4ccccc4C3)[nH]c(=O)c2Br)c1 | 50 | 12 |  |  |  |  |  |  | 
12 | N#Cc1cc(Cl)cc(Oc2cc(CC(=O)N3CCc4ccccc4C3)[nH]c(=O)c2Cl)c1 | 35 | 30 |  |  |  |  |  |  | 
13 | N#Cc1cc(Cl)cc(Oc2cc(CCc3ccccc3)[nH]c(=O)c2Cl)c1 |  | 8 |  |  |  |  |  |  | 
14 | N#Cc1cc(Cl)cc(Oc2cc(CCc3nc4ccccc4o3)[nH]c(=O)c2Cl)c1 |  | 6 | 16 | 4 |  |  |  |  | 
15 | N#Cc1cc(Cl)cc(Oc2cc(CCc3ccccn3)[nH]c(=O)c2Cl)c1 |  | 21 | 78 | 33 |  |  |  |  | 
16 | N#Cc1cc(Cl)cc(Oc2cc(CCc3cccnc3)[nH]c(=O)c2Cl)c1 |  | 22 | 16 | 22 |  |  |  |  | 
17 | N#Cc1cc(Cl)cc(Oc2cc(CCc3ccncc3)[nH]c(=O)c2Cl)c1 |  | 19 | 14 | 21 |  |  |  |  | 
18 | N#Cc1cc(Cl)cc(Oc2cc(CCc3cccc(Cl)c3)[nH]c(=O)c2Cl)c1 |  | 12 | 6 | 7 |  |  |  |  | 
19 | N#Cc1cc(Cl)cc(Oc2c(F)c(CCc3ccccc3)[nH]c(=O)c2Cl)c1 |  | 7 |  |  |  |  |  |  | 
20 | O=C1Nc2ccc(Cl)cc2[C@@](C#CC2CC2)(C(F)(F)F)O1 [EFAVIRENZ] |  |  |  |  |  | 3 |  | 65 | 
